In PMC8791448 (ACS infectious diseases, 2021):

Target: T1, ecLpxC (UDP-3-O-acyl-N-acetylglucosamine deacetylase) (Escherichia coli, UniProt P0A725)
T1 sequence (P0A725 1-305): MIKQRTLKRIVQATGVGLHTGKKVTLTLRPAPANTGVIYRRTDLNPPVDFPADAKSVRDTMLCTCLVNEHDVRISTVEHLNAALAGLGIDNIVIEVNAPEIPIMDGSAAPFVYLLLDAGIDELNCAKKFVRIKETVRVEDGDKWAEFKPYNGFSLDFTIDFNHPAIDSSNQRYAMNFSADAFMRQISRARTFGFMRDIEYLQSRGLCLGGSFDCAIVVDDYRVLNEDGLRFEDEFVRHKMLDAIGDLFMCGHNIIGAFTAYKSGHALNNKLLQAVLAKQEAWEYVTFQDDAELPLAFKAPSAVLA
Assay: residence time on purified ecLpxC by displacement with fluorescent ligand PT900
Format: binding
Conditions: read-out: tR (min)^b

## C[C@@H](O)[C@H](NC(=O)c1ccc(C#Cc2ccc(CN3CCOCC3)cc2)cc1)C(=O)NO [CHIR-090]
  residence time: 66 ± 30 min
